Measured values: patent US20210032633A1, “DRUG FOR CHRONIC INFLAMMATORY DISEASE AND METHOD FOR EVALUATING SUSCEPTIBILITY TO CHRONIC INFLAMMATORY DISEASE” (National University Corporation Hokkaido University, priority 2018, published 2021)

How the values were obtained:
NEDD4 SP3 mRNA = test: Knockdown efficiency: NEDD4 SP3 mRNA expression by qPCR in siRNA-transfected H4 cells; format: cell-based, human; details: under TNF-α stimulation, relative to GAPDH, remaining expression vs si-control
Experimental: (§1) siRNA (GCAAGACAAGAGAUGAUUUtt (SEQ ID No. 23), Ambion Silencer Select siRNA, Thermo Fisher Scientific) against NEDD4 SP3, and control siRNA (Ambion Silencer Select siRNA, Thermo Fisher Scientific) were transfected into a human glioma cell line (H4 cells) using Lipofectamine RNAiMAX (Thermo Fisher Scientific), and NEDD4 SP3 knockdown cells were constructed. After stimulating the control cells and the knockdown cells with IL-6 +TNFa, the IL-6 mRNA expression was measured by qPCR (primer sequence: […] (SEQ ID No. 24) and […] (SEQ ID No.25)). Moreover, the knockdown efficiency was confirmed using the NEDD4 SP3 expression as an index. The expression level indicates the relative amount with respect to the housekeeping gene GAPDH (primer sequence: […] (SEQ ID No.26) and CGCTCCTGGAAGATGGTG (SEQ ID No.27)).

[1] = tested on: IL-6 mRNA expression in H4 cells; test: IL-6 mRNA expression by qPCR in H4 cells stimulated with IL-6 + TNFa (inflammation amplifier); format: cell-based, human; details: under IL-6 and TNF-α stimulation, relative to GAPDH, remaining expression vs si-control
Experimental: as §1

## GCAAGACAAGAGAUGAUUUtt (SEQ ID No. 23) (GCAAGACAAGAGAUGAUUUTT; chemistry not given here) [NEDD4 si-SP3, siRNA against NEDD4 SP3, Ambion Silencer Select siRNA, Thermo Fisher Scientific]
NEDD4 SP3 mRNA
  NEDD4 SP3 mRNA expression level compared to H4 cells introduced with si-control: 4.2%
[1]
  IL-6 mRNA expression level compared to H4 cells introduced with si-control: 41.0%
